Laboratory results taken from patent publication US12304904B2, “Bicyclic [4,6,0] hydroxamic acids as HDAC inhibitors” (Valo Health, Inc., priority 2015, dated 2025).

Each molecule was assayed against T1, HDAC6 (Homo sapiens, UniProt Q9UBN7) (assay: In vitro histone deacetylase assay: enzymatic HDAC6 electrophoretic mobility shift assay). Conditions: full length human recombinant HDAC6, 1 nM enzyme, 2 μM peptide substrate RHKK(Ac)-NH2, 25° C.; read-out: Inhibitory Concentration (IC50) against HDAC6, Activity Range.
T1 construct: Full length human recombinant HDAC6 protein were expressed in baculoviral system; made in house
T1 sequence (Q9UBN7 1-1215): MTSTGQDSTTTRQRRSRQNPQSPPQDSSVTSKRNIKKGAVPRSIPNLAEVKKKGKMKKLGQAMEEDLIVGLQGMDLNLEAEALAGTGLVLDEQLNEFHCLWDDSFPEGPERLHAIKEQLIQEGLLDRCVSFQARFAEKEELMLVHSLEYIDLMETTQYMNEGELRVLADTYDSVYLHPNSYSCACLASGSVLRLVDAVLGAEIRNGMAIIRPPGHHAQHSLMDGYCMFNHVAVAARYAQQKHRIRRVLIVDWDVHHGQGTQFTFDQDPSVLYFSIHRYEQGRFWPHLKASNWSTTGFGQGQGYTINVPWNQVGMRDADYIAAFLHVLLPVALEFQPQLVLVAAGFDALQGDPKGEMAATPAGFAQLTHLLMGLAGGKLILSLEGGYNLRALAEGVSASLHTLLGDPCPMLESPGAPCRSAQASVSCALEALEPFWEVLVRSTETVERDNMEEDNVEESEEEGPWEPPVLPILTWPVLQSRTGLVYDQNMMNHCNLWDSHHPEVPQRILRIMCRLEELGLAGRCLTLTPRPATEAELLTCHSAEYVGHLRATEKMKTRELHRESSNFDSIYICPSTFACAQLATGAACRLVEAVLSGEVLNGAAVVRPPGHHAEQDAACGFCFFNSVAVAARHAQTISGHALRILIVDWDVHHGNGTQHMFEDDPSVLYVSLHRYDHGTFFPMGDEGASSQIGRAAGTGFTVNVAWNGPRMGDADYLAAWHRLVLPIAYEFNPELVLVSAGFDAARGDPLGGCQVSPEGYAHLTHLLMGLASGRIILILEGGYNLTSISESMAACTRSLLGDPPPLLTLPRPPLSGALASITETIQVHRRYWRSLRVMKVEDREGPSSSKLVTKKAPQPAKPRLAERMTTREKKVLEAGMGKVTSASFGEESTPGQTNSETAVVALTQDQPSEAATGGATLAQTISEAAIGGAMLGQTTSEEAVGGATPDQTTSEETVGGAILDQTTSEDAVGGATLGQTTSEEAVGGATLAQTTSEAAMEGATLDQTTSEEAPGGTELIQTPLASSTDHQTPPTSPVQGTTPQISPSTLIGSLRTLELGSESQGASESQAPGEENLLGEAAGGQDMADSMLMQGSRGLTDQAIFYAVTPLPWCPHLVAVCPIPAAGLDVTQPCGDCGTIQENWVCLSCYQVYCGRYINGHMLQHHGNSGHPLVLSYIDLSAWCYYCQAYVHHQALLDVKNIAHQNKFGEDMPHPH
Type: biochemical
Description: The enzymatic HDAC6 assay was performed using electrophoretic mobility shift assay. Full length human recombinant HDAC6 protein were expressed in baculoviral system and purified by affinity chromatography. The enzymatic reactions were assembled in 384 well plates in a total volume of 25 μL in a reaction buffer composing: 100 mM HEPES, pH7.5, 25 mM KCl, 0.1% bovine serum albumin, 0.01% Triton X-100, 1% DMSO (from compounds) 2 μM of the fluorescently labeled peptide substrate and enzyme. The enzyme was added at a final concentration of 1 nM. The peptide substrate RHKK(Ac)—NH2 was used. The compounds were tested at 12 concentrations spaced by 3× dilution intervals. Negative control samples (0%-inhibition in the absence of inhibitor) and positive control samples (100%-inhibition) were assembled in replicates of four in each assay plate. The reactions were incubated at 25° C. and quenched by the addition of 45 μL of termination buffer (100 mM HEPES, pH 7.5, 0.01% Triton X-100, 0.05% SDS).
The terminated assay plates were analyzed on LabChip® 3000 microfluidic electrophoresis instrument (Perkin Elmer/Caliper Life Sciences). The fluorescence intensity of the electrophoretically separated de-acetylated product and substrate peptide were measured. Activity in each sample was determined as the product to sum ratio (PSR): P/(S+P), where P is the peak height of the product peptide and S is the peak height of the substrate peptide. Percent inhibition (Pinh) was determined using the following equation:
Pinh=(PSR0%−PSRinh)/(PSR0%−PSR100%)*100, where PSRinh is the product sum ratio in the presence of inhibitor, PSR0% is the average product sum ration in the absence of inhibitor and PSR100% is the average product sum ratio in 100%-inhibition control samples. The IC50 values of inhibitors are determined by fitting the %-inhibition curves with 4 parameter dose-response model using XLfit 4 software.
In the case of CC1(C(=O)N2CCCOc3cc(C(=O)NO)ccc3C2)CCOCC1 [N-hydroxy-5-(4-methyltetrahydro-2H-pyran-4-carbonyl)-3,4,5,6-tetrahydro-2H-benzo[b][1,5]oxazocine-9-carboxamide], the IC50 is reported as ≤ 100 nM. With O=C(NO)c1ccc2c(c1)OCCCN(C(=O)C1CCOCC1)C2 [N-hydroxy-5-(tetrahydro-2H-pyran-4-carbonyl)-3,4,5,6-tetrahydro-2H-benzo[b][1,5]oxazocine-9-carboxamide] the IC50 was 100 to 500 nM. O=C(NO)c1ccc2c(c1)OCCCNC2 [N-hydroxy-3,4,5,6-tetrahydro-2H-benzo[b][1,5]oxazocine-9-carboxamide] was tested, and the IC50 was > 500 nM.
